Laboratory results reported in ChEMBL document CHEMBL4411258, “Novel natural compounds from endophytic fungi with anticancer activity” (Eur J Med Chem, 2018).

Experiments:
MCF7 = experiment: Cytotoxicity against human MCF7 cells after 48 hrs by MTT assay; format: functional, cell-based
HepG2 = experiment: Cytotoxicity against human HepG2 cells by MTT assay; format: functional, cell-based
SH-SY5Y [1] = experiment: Cytotoxicity against human SH-SY5Y cells by MTT assay; format: functional, cell-based
NB-4 = experiment: Cytotoxicity against human NB4 cells after 48 hrs by MTT assay; format: functional, cell-based; settings: NB-4, 48 h
A549 [2] = experiment: Cytotoxicity against human A549 cells after 48 hrs by MTT assay; format: functional, cell-based
SH-SY5Y [3] = experiment: Cytotoxicity against human SH-SY5Y cells after 48 hrs by MTT assay; format: functional, cell-based
PC-3 = experiment: Cytotoxicity against human PC3 cells after 48 hrs by MTT assay; format: functional, cell-based; settings: PC-3, 48 h
A549 [4] = experiment: Cytotoxicity against human A549 cells by MTT assay; format: functional, cell-based
L02 = experiment: Cytotoxicity against human L02 cells by MTS assay; format: cell-based
[5] = Homo sapiens, MCF7, 48 h, read-out: IC50
[6] = Homo sapiens, A549, 48 h, read-out: IC50

`Cc1cc(O)c2c(c1)C(=O)c1c(c(O)cc(O)c1-c1c(O)cc(O)c3c1C(=O)c1cc(CC(C)O)cc(O)c1C3=O)C2=O` (stereo unspecified) gave an IC50 (MCF7; [5]) of 20.8 µg/mL.
In the case of `COc1ccc2c(c1CC=C(C)C)C=C(C)OC2`, the IC50 (HepG2) is reported as 8.2 µM and the IC50 (SH-SY5Y [1]) is reported as 6.8 µM.
In the case of `COc1ccc(C(CO)C(O)CO)c2oc3c(O)c(O)cc(O)c3c(=O)c12` (stereo unspecified), the IC50 (SH-SY5Y [1]) is reported as 4.2 µM.
`COc1ccc(CCCO)c2cc(CC(C)=O)oc(=O)c12` gave an IC50 (MCF7; [5]) of 2.8 to 8.8 µM, an IC50 (NB-4) of 2.8 to 8.8 µM and an IC50 (A549 [2]; [6]) of 2.8 to 8.8 µM. For the same compound, the IC50 (SH-SY5Y [3]) was 2.8 to 8.8 µM and the IC50 (PC-3) was 2.8 to 8.8 µM.
Work on `CS[C@@]1(CO)C(=O)N(C)[C@@](Cc2cn([C@@]34C[C@@]5(SC)C(=O)N(C)[C@](CO)(SC)C(=O)N5[C@]3(C)Nc3ccccc34)c3ccccc23)(SC)C(=O)N1C` yielded an IC50 (MCF7; [5]) of 8.3 µg/mL.
With `CCCCC[C@@H]1CC[C@H](C)CCCCC(=O)N[C@@H](Cc2ccc(OCC=C(C)C)cc2)C(=O)O1` the IC50 (HepG2) was 36.6 µM.
For `COc1cc(O)c2c(=O)c3c(O)ccc(C(CO)C(O)CO)c3oc2c1O` (stereo unspecified), the IC50 (A549 [4]) was 3.6 µM.
In the case of `CC(=O)OCC1=C[C@@H]2[C@H](CCO)[C@@]1(C)CCCC2(C)C`, the IC50 (MCF7; mcf7) is reported as 19.1 µM and the IC50 (A549 [2]; a549) is reported as 33.2 µM.
For `CC(=O)Cc1cc2c(CCCO)cc(O)cc2c(=O)o1`, the IC50 (MCF7; [5]) was 2.8 to 8.8 µM, the IC50 (NB-4) was 2.8 to 8.8 µM and the IC50 (A549 [2]; [6]) was 2.8 to 8.8 µM. It also gave an IC50 (SH-SY5Y [3]) of 2.8 to 8.8 µM and an IC50 (PC-3) of 2.8 to 8.8 µM.
`COc1ccc2c(c1C/C=C(\C)CO)C=C(CO)OC2` showed an IC50 (MCF7; [5]) of 2.8 to 8.8 µM, an IC50 (NB-4) of 2.8 to 8.8 µM and an IC50 (A549 [2]; [6]) of 2.8 to 8.8 µM. For the same compound, the IC50 (SH-SY5Y [3]) was 2.8 to 8.8 µM and the IC50 (PC-3) was 2.8 to 8.8 µM.
Compound `COc1c(O)cc2c(c1CC=C(C)C)C=C(C)OC2` has an IC50 (A549 [4]) of 9.4 µM and an IC50 (HepG2) of 8.8 µM.
For `COC(=O)[C@]1(Cc2ccc(O)c(CC=C(C)C)c2)OC(=O)C(O)=C1c1ccccc1`, the IC50 (HepG2) was < 10 µM, the IC50 (SH-SY5Y [1]) was < 10 µM and the IC50 (L02) was < 10 µM.
`COc1ccc2c(c1)N(C(=O)C=C(C)C)C1C2[C@H](O)[C@@]2(O)C(=O)N3CCC[C@H]3C(=O)N2[C@H]1CC(C)(C)O` (stereo partly specified) was tested, and the IC50 (PC-3) was 30.6 µM.
Work on `COc1c(O)cc2c(c1CC=C(C)C)C[C@@H](C)OC2=O` yielded an IC50 (SH-SY5Y [1]) of 8.8 µM.
For `COc1cc(C)c2c(c1)oc(=O)c1c(O)cc(O[C@@H]3O[C@H](CO)[C@H](O)[C@H](O)[C@H]3O)cc12`, the IC50 (L02) was 7.2 µg/mL.
In the case of `C/C(=C\Cc1c(O)ccc2c1C=C(CO)OC2)CO`, the IC50 (MCF7; [5]) is reported as 2.8 to 8.8 µM, the IC50 (NB-4) is reported as 2.8 to 8.8 µM and the IC50 (A549 [2]; [6]) is reported as 2.8 to 8.8 µM. It also gave an IC50 (SH-SY5Y [3]) of 2.8 to 8.8 µM and an IC50 (PC-3) of 2.8 to 8.8 µM.
`C[C@@H](O)[C@@]1(O)C(=O)N2C(C)(C)[C@@H]3Cc4cccc5c4[C@@]4(O[C@@]1(O)[C@@]2(O)[C@H]34)C(=O)N5C` was tested, and the IC50 (MCF7; [5]) was 1.2 to 4.2 µM, the IC50 (NB-4) was 1.2 to 4.2 µM and the IC50 (A549 [2]; [6]) was 1.2 to 4.2 µM. The IC50 (SH-SY5Y [3]) was 1.2 to 4.2 µM and the IC50 (PC-3) was 1.2 to 4.2 µM.
`COC(=O)[C@]1(Cc2cc(CC=C(C)C)c(O)c(OC)c2)OC(=O)C(O)=C1c1ccc(O)cc1` gave an IC50 (HepG2) of 3.6 µM and an IC50 (L02) of 4.2 µM.
`COC(=O)[C@]1(Cc2ccc(OC)c(CC=C(C)C)c2)OC(=O)C(O)=C1c1ccccc1` was tested, and the IC50 (HepG2) was < 10 µM, the IC50 (SH-SY5Y [1]) was < 10 µM and the IC50 (L02) was < 10 µM.
Work on `COC(=O)c1cccc2oc3cc(C)cc(O[C@@H]4O[C@H](CO)[C@@H](O)[C@H](O)[C@H]4O)c3c(=O)c12` yielded an IC50 (L02) of 6.8 µg/mL.
For `COC(=O)[C@]1(Cc2ccc(OC)c(CC=C(C)C)c2O)OC(=O)C(O)=C1c1ccc(O)cc1`, the IC50 (HepG2) was 4.8 µM and the IC50 (L02) was 3.9 µM.
In the case of `COc1cc2c(c3c1OC(C)(C)CC3=O)C[C@@H](C)OC2=O`, the IC50 (HepG2) is reported as 4 µM and the IC50 (L02) is reported as 3.8 µM.
In the case of `C[C@H]1C(=O)N2c3ccccc3[C@@]3(O)C[C@H](n4cnc5ccccc5c4=O)C(=O)N1[C@@H]23`, the IC50 (PC-3) is reported as 32.2 µM.
In the case of `COc1cc(OC)c2c(c1CC=C(C)C)C[C@@H](C)OC2=O`, the IC50 (HepG2) is reported as 9.4 µM and the IC50 (SH-SY5Y [1]) is reported as 8.5 µM.
For `COC(=O)[C@]1(Cc2ccc(O)c(CC=C(C)C)c2)OC(=O)C(O)=C1c1ccc(OC)cc1`, the IC50 (HepG2) was < 10 µM, the IC50 (SH-SY5Y [1]) was < 10 µM and the IC50 (L02) was < 10 µM.
For `COC(=O)CCCN1C(=O)[C@]23O[C@]4(O)[C@@H](O)C(=O)N5C(C)(C)[C@H](Cc6cccc1c62)[C@H]3[C@@]54O`, the IC50 (MCF7; [5]) was < 10 µM, the IC50 (NB-4) was < 10 µM and the IC50 (SH-SY5Y [3]) was < 10 µM. The IC50 (PC-3) was < 10 µM.
In the case of `COC(=O)CCCN1C(=O)[C@@]23O[C@@]4(O)[C@@]5(O)[C@@H]2[C@@H](Cc2cccc1c23)C(C)(C)N5C(=O)[C@]4(O)[C@@H](C)O`, the IC50 (MCF7; [5]) is reported as < 10 µM, the IC50 (NB-4) is reported as < 10 µM and the IC50 (A549 [2]; [6]) is reported as < 10 µM. For the same compound, the IC50 (SH-SY5Y [3]) was < 10 µM.
